ChEMBL document CHEMBL1154556, “Siamenol, a new carbazole alkaloid from Murraya siamensis” (J Nat Prod, 2000)
In brackets after ≈: the same amount, converted by molar mass. Activity calls are given as the source filed them. The rule behind the calls is not given here.

How the values were obtained:
[1] = tested on: Human immunodeficiency virus; test: Antiviral activity against HIV; assay type: functional, organism-based
[2] = tested on: Human immunodeficiency virus; test: Antiviral activity against HIV assessed as protection against viral infection by XTT-tetrazolium method; assay type: functional

## CC(C)=CCC/C(C)=C/Cc1c(O)c(C)cc2c1[nH]c1ccccc12 [MAHANIMBILOL]
[1]; Human immunodeficiency virus 1
  EC50: 8.6 µg/mL (≈ 25.8 µM)
  IC50: 23 µg/mL (≈ 69 µM)

## CC(C)=CCCC1(C)C=Cc2c(c(C)cc3c2[nH]c2ccccc23)O1 (stereo not given)
[1]
  Activity: inactive

## CC(C)=CCc1cc2c(cc1O)[nH]c1ccc(C)cc12 [SIAMENOL]
[1]; Human immunodeficiency virus 1
  EC50: 2.6 µg/mL (≈ 9.8 µM)
[2]
  Activity: 50%
